According to ChEMBL document CHEMBL1157918, “The development and SAR of pyrrolidine carboxamide 11beta-HSD1 inhibitors” (Bioorg Med Chem Lett, 2010):

What was measured:
in vitro = conditions: human, liver microsomes
Description: Intrinsic clearance in human liver microsomes

Mus musculus [1] = species: Mus musculus; assay: animal or person; conditions: C57BL, Plasma, po, read-out: INH
Description: Inhibition of 11-beta-HSD1 in C57BL mouse assessed as reduction of plasma cortisol level at 1 mg/kg, po administered 30 mins before cortisone challenge measured after 60 mins by ELISA relative to control

Mus musculus [2] = species: Mus musculus; assay: animal or person; conditions: C57BL, Plasma, po, read-out: INH; remark: listed apart in the source
Description: Inhibition of 11-beta-HSD1 in C57BL mouse assessed as reduction of plasma cortisol level at 3 mg/kg, po administered 30 mins before cortisone challenge measured after 60 mins by ELISA relative to control

Mus musculus [3] = species: Mus musculus; assay: animal or person; conditions: C57BL, Plasma, po, read-out: INH; remark: listed apart in the source
Description: Inhibition of 11-beta-HSD1 in C57BL mouse assessed as reduction of plasma cortisol level at 10 mg/kg, po administered 30 mins before cortisone challenge measured after 60 mins by ELISA relative to control

Mus musculus [4] = species: Mus musculus; assay: animal or person; conditions: C57BL, Plasma, po, read-out: INH; remark: listed apart in the source
Description: Inhibition of 11-beta-HSD1 in C57BL mouse assessed as reduction of plasma cortisol level at 30 mg/kg, po administered 30 mins before cortisone challenge measured after 60 mins by ELISA relative to control

Mus musculus [5] = species: Mus musculus; assay: animal or person; conditions: C57BL, Plasma, po, read-out: INH; remark: listed apart in the source
Description: Inhibition of 11-beta-HSD1 in C57BL mouse assessed as reduction of plasma cortisol level at 100 mg/kg, po administered 30 mins before cortisone challenge measured after 60 mins by ELISA relative to control

O=C(NC1C2CC3CC(C2)CC1C3)[C@H]1CCCN1CC1CCCCC1 (some centres not stated)
CLint scaled (in vitro): 62.8 mL/min/kg

CCN1CCC[C@@H]1C(=O)NC1C2CC3CC(C2)CC1C3 (some centres not stated)
CLint scaled (in vitro): 43.9 mL/min/kg | inhibition in vivo at 1 mg/kg (Mus musculus [1]): 52% | inhibition in vivo at 3 mg/kg (Mus musculus [2]): 46% | inhibition in vivo at 10 mg/kg (Mus musculus [3]): 23% | inhibition in vivo at 30 mg/kg (Mus musculus [4]): 20% | inhibition in vivo at 100 mg/kg (Mus musculus [5]): 18%

CC(C)CN1CCC[C@@H]1C(=O)NC1C2CC3CC(C2)CC1C3 (some centres not stated)
CLint scaled (in vitro): 79.3 mL/min/kg

O=C(NC1C2CC3CC(C2)CC1C3)[C@H]1CCCN1CC1CCCC1 (some centres not stated)
CLint scaled (in vitro): 75.3 mL/min/kg

O=C(NC1C2CC3CC(C2)CC1C3)[C@H]1CCCN1CC1(O)CCCCC1 (some centres not stated)
CLint scaled (in vitro): 64.6 mL/min/kg

N#Cc1ccc(CN2CCC[C@@H]2C(=O)NC2C3CC4CC(C3)CC2C4)cc1 (some centres not stated)
CLint scaled (in vitro): 73.2 mL/min/kg

O=C(NC1C2CC3CC(C2)CC1C3)[C@H]1CCCN1CC1CCOCC1 (some centres not stated)
CLint scaled (in vitro): 20.3 mL/min/kg

CN1CCC[C@@H]1C(=O)NC1C2CC3CC(C2)CC1C3 (some centres not stated)
CLint scaled (in vitro): 22.2 mL/min/kg

CCCN1CCC[C@@H]1C(=O)NC1C2CC3CC(C2)CC1C3 (some centres not stated)
CLint scaled (in vitro): 93.3 mL/min/kg

O=C(NC1C2CC3CC(C2)CC1C3)[C@H]1CCCN1CC1(O)CCCC1 (some centres not stated)
CLint scaled (in vitro): 86.2 mL/min/kg

O=C(NC1C2CC3CC(C2)CC1C3)[C@H]1CCCN1CC1CCC1 (some centres not stated)
CLint scaled (in vitro): 85.8 mL/min/kg

O=C(NC1C2CC3CC(C2)CC1C3)[C@H]1CCCN1c1ccccn1 (some centres not stated)
CLint scaled (in vitro): 79.2 mL/min/kg
